Test results reported in patent US4837228A, “Antiinflammatory and antimicrobial compounds and compositions” (The University of Mississippi, priority 1982, dated 1989).
Values after ≈ are worked out from the molar mass of the structure shown. “Also recorded” adds a separate entry of the source. Where two headings read alike, the source gives them in different places.

What was measured:
[1] = deaths and adverse effects observed in the rat paw edema test; type: in vivo
Experimental: (§1) In the Rat Paw Edema Test, the rats utilized were divided into test groups of six to eight animals, weighed and marked so that individual rats could be identified; one hour before testing all rats were given a 700 mg/kg intraperitoneal injection of ethyl urethane in distilled water to render them tractable during testing. A circle was drawn, with a felt-tipped marker, around the hind leg of each rat just above the ankle, and each rat was dosed with a test or control compound by intraperitoneal injection. Negative control groups received the vehicle; while positive control groups received a dose of phenylbutazone (PBZ) as shown in Table II. Test compounds were given at doses of 60, 120, 240 and 480 mg/kg. The positive controls were given at 120 mg/kg and 60 mg/kg. Phenylbutazone was prepared for injection by suspending it in normal saline using Tween 60. The rats were then held in group cages for 30 minutes. The volume of the left hind paw was measured using a mercury displacement pleysmograph. The paw is dipped into the mercury until the mercury touches the line above the ankle. Mercury is then withdrawn until the mercury returns to its original level. The amount of mercury removed is measured in milliliters (ml). The mercury can be measured accurately to 0.01 ml. This left hind paw was then injected with 0.1 ml of a 5% w/v solution of viscous carageenan in normal saline. The injection was given between the metatarsal bones using a 27 gauge needle, and the rats then held in group cages for 3 hours. The volume of the left hind paws was measured again in the pleysmograph. The results were computed in the following manner:
The eighth rat died within 24 hours of injection.

[2] = test system: erythrocyte (heat-induced hemolysis); assay: erythrocyte membrane stabilization assay (heat-induced erythrocyte hemolysis); type: cell-based; details: Erythrocyte; for inhibition at 250 µM: 2.5 × 10^-4 M
Experimental: The published procedure (Proc. Soc. Exp. Biol. Med. 1967; 125; 837-842 Brow et al) for in vitro assay for antiinflammatory agents based on stabilization of erythrocytes was used. All compounds were prepared for administration by dissolving in physiologic saline or suspending in 2% ethanol in saline and the pH adjusted to 7.4 The concentrations tested in one series are given in Table 8. Aspirin (ASA) and phenylbutazone were used as positive controls for comparison of activity. Tests using this procedure were successfully and repeatedly using either 40% or 20% RBC suspensions.

[3] = test system: carrageenan-induced rat paw edema; assay: carrageenan-induced rat paw edema test, intraperitoneal dosing; type: in vivo; set-up: key to mean difference in volume (MDV): post-injection minus pre-injection mean paw volume
Experimental: Two methods were used to assess the antiinflammatory activity of the compounds of the invention: the carrageenan-induced rat paw edema test and, the erythrocyte membrane stabilization assay.
as §1
(§2) a. A mean is taken for both the pre-injection and post-injection paw volume of each test group.
(§3) b. The mean difference in volume (MDV) for each test group is computed by subtracting the pre-injection means from the post-injection mean.
(§4) c. The percent of control is computed for each test [formula] The percent of control is used to compare the efficacy of the various drug treatments.
(§5) d. The percent increase in paw volume is calculated for each group as: [formula] The percent increase is used to compare the amount of edma observed in one experiment to the amount of edma observed in other experiments.
The data from the rat paw test were further analyzed using a one-way analysis of varience (ANOVA) and Duncan's New Multiple Range Test. The pre-injection score of each animal was subtracted from his post-injection score and an analysis of the different scores were conducted.
The procedure described above was followed. […] The vehicle control used was Tween 60, Arlacel and distilled water prepared without CBC(II).

[4] = test system: carrageenan-induced rat paw edema; assay: carrageenan-induced rat paw edema test, oral gavage; type: in vivo; set-up: key to mean difference in volume (MDV): ml; post-injection minus pre-injection mean paw volume
Experimental: as §1, with “A circle was drawn, with a felt-tipped marker, around the hind leg of each rat just above the ankle, and each rat was dosed with a test or control compound by intraperitoneal injection.” left out
as §2, §3, §4, §5
[…] The test was conducted twice, once with nonfasted rats and once with rats that had been fasted during the 24 hour period prior to dosing. The 60 mg/kg phenylbutazone control group was not used in the test with fasted animals. Tween 60 in normal saline was the vehicle control for the non-fasted rats and normal saline was the vehicle control for the fasted rats.

Mycobacterium smegmatis = assay: MIC, two-fold (broth) serial dilution, M. smegmatis; type: cell-based; details: Mycolicibacterium smegmatis, read-out: MIC
Experimental: (§6) Both qualitative and quantitative screens were performed. Qualitative screening was accomplished using the agar well diffusion assay technque while quantitative screening was accomplished by the two-fold (broth) serial dilution method to determine the minimum inhibitory concentration (MIC). Innoculation was accomplished with one loop-full of a 1:10 dilution of the 24-hour-old broth culture, (fungal cultures and M.smegmatis more often required 48 to 72 hours of incubation) of the test organisms in sterile water. Streptomycin sulfate was used as a positive control for antibacterial activity while amphitericin B was used as an antifungal positive control. Organisms utilized in the screens included gram-positive, gram-negative, and acid-fast bacteria as well as different types of fungi. […] An intermediate type activity is seen where R is hydrogen. However, where R is lengthened up to C15 a decrease in activity was noted. Total saturation of the two double bonds in the compounds having a methyl side chain lead, in most cases, to an increase in both antifungal and antibacterial activity.

Staphylococcus aureus = assay: MIC, two-fold (broth) serial dilution, S. aureus; type: cell-based; details: Staphylococcus aureus, read-out: MIC
Experimental: as §6

[5] = test system: Trichophyton mentagrophytes; assay: MIC, two-fold (broth) serial dilution, T. mentagrophytes; type: cell-based; details: Trichophyton mentagrophytes, read-out: MIC
Experimental: as §6

Saccharomyces cerevisiae = assay: MIC, two-fold (broth) serial dilution, S. cerevisiae; type: cell-based; details: Saccharomyces cerevisiae, read-out: MIC
Experimental: as §6

Bacillus subtilis = assay: MIC, two-fold (broth) serial dilution, B. subtilis; type: cell-based; details: Bacillus subtilis, read-out: MIC
Experimental: as §6

[6] = Table 8, 1 × 10^-4 M, read-out: inhibition of heat-induced erythrocyte hemolysis
[7] = Table 4, 60 mg/kg i.p., fasted rats
[8] = Table 4, 120 mg/kg i.p., fasted rats
[9] = Table 6, 60 mg/kg oral, non-fasted rats
[10] = Table 6, 120 mg/kg oral, non-fasted rats
[11] = Table 7, 120 mg/kg oral, fasted rats, doses approximate

Compound: CCCCC1C(=O)N(c2ccccc2)N(c2ccccc2)C1=O [Phenylbutazone, reference compound]
- deaths ([1]; 240 mg/kg i.p. plus ethyl urethane i.p., listed as PBZ): rapid deaths; also recorded: Seven of the eight animals receiving 240 mg/kg of PBZ died before the test could be completed
- inhibition at 100 µM [2, 6]: 16%
- inhibition at 20 µM ([2]; Table 8, 2 × 10^-5 M, read-out: inhibition of heat-induced erythrocyte hemolysis): 10%
- inhibition at 250 µM ([2]; Table 9 Test 1 (20% RBC), read-out: percent inhibition of heat-induced erythrocyte hemolysis): 54%
- inhibition at 25 µM ([2]; Table 9 Test 1 (20% RBC), 2.5 × 10^-5 M, read-out: percent inhibition of heat-induced erythrocyte hemolysis): 31%
- inhibition at 250 µM ([2]; Table 9 Test 2 (40% RBC), read-out: percent inhibition of heat-induced erythrocyte hemolysis): 70%
- inhibition at 20 µM ([2]; Table 9 Test 3 (20% RBC), 2.0 × 10^-5 M, read-out: percent inhibition of heat-induced erythrocyte hemolysis): 10%
- inhibition at 250 µM ([2]; Table 9 Test 3 (20% RBC), read-out: percent inhibition of heat-induced erythrocyte hemolysis): 49%
- inhibition at 100 µM ([2]; read-out: percent inhibition of heat-induced erythrocyte hemolysis, Table 9 Test 3 (20% RBC), 1.0 × 10^-4 M): 16%
- inhibition at 20 µM ([2]; 2×10^-5 M, read-out: inhibition of heat-induced red cell hemolysis): 10%
- inhibition at 100 µM ([2]; 10^-4 M, read-out: inhibition of heat-induced red cell hemolysis): 16%
- inhibition at 60 mg/kg ([3]; Rattus norvegicus, ip, Table 5, 60 mg/kg i.p., * P = 0.01): 52%
- inhibition at 120 mg/kg ([3]; Rattus norvegicus, ip, Table 5, 120 mg/kg i.p., * P = 0.01, read-out: inhibition of carrageenan-induced rat paw edema): 76%
- percent increase in paw volume ([3]; Table 1, 120 mg/kg i.p.): 10.316%
- percent of control ([3]; Table 1, 120 mg/kg i.p.): 22.973%
- mean difference in volume (MDV) ([3]; Table 1, 120 mg/kg i.p., paw volume measured in ml): 0.106
- group mean difference score ([3]; Table 3, 120 mg/kg): 0.016
- difference of mean scores versus vehicle control (Duncan's test) ([3]; Table 3, 120 mg/kg, ** p 0.01): 0.356
- difference of mean scores (Duncan's test) ([3]; Table 3, PBZ 120 mg/kg versus CBC 240 mg/kg): 0.102
- difference of mean scores (Duncan's test) ([3]; Table 3, PBZ 120 mg/kg versus CBC 480 mg/kg, * p 0.05): 0.149
- mean difference in volume (MDV) [3, 7]: 0.090
- percent increase in paw volume [3, 7]: 6.742%
- percent of control [3, 7]: 47.059%
- mean difference in volume (MDV) [3, 8]: 0.046
- percent increase in paw volume [3, 8]: 3.254%
- percent of control [3, 8]: 24.183%
- inhibition at 120 mg/kg ([4]; Rattus norvegicus, po, Table 5, 120 mg/kg oral, fasted rats, N.S., read-out: inhibition of carrageenan-induced rat paw edema): 36%
- inhibition at 60 mg/kg ([4]; Rattus norvegicus, po, read-out: inhibition of carrageenan-induced rat paw edema, Table 5, 60 mg/kg oral, nonfasted rats, * P = 0.01): 37%
- inhibition at 120 mg/kg ([4]; Rattus norvegicus, po, read-out: inhibition of carrageenan-induced rat paw edema, Table 5, 120 mg/kg oral, nonfasted rats): 22%
- mean difference in volume (MDV) [4, 9]: 0.489
- percent increase in paw volume [4, 9]: 50.257%
- percent of control [4, 9]: 78.200%
- mean difference in volume (MDV) [4, 10]: 0.392
- percent increase in paw volume [4, 10]: 36.098%
- percent of control [4, 10]: 62.667%
- mean difference in volume (MDV) [4, 11]: 0.403
- percent increase in paw volume [4, 11]: 31.051%
- percent of control [4, 11]: 64.400%
- antiinflammatory activity compared with PBZ in words ([4]; oral): slightly more effective than CBC at 120 mg/kg in the nonfasted rats

Compound: CC(C)=CCCC1(C)C=Cc2c(O)cc(C)cc2O1 (centres unmarked) [CBC (II), 2 methyl-2(4'-methyl-pent-3'-enyl)-5-hydroxy-7-metylchromene]
- toxic or adverse effects ([1]; 60 and 120 mg/kg i.p.): No toxic or adverse effects were observed
- MIC (Mycobacterium smegmatis; 24 h): 3.12 µg/mL (≈ 12.1 µM)
- MIC (Mycobacterium smegmatis; 48 h): 6.25 µg/mL (≈ 24.2 µM)
- inhibition at 100 µM [2, 6]: 86%
- mean difference in volume (MDV) [3, 7]: 0.090
- percent increase in paw volume [3, 7]: 6.742%
- percent of control [3, 7]: 47.059%
- mean difference in volume (MDV) [3, 8]: 0.070
- percent increase in paw volume [3, 8]: 4.956%
- percent of control [3, 8]: 36.601%
- antiinflammatory activity compared with PBZ in words ([3]; i.p.): slightly less activity than PBZ at the 120 mg/kg dose; also recorded: as active at PBZ at 60 mg/kg
- antiinflammatory effect in words ([3]; i.p.): active at both 60 mg/kg and 120 mg/kg
- MIC (Staphylococcus aureus; 24 h): 3.12 µg/mL (≈ 12.1 µM)
- MIC (Staphylococcus aureus; 48 h): 3.12 µg/mL (≈ 12.1 µM)
- MIC ([5]; 48 h): 6.25 µg/mL (≈ 24.2 µM)
- MIC ([5]; 72 h): 6.25 µg/mL (≈ 24.2 µM)
- MIC (Saccharomyces cerevisiae; 48 h): 6.25 µg/mL (≈ 24.2 µM)
- MIC (Saccharomyces cerevisiae; 72 h): 12.5 µg/mL (≈ 48.4 µM)
- MIC (Bacillus subtilis; 24 h): 3.12 µg/mL (≈ 12.1 µM)
- MIC (Bacillus subtilis; 48 h): 3.12 µg/mL (≈ 12.1 µM)
